Test results: BigSolDB 2.1

Oc1ccc(C2(c3ccc(O)cc3)CCCCC2)cc1
solubility (mole fraction)
Settings	in 1,4-dioxane	in THF	in acetone	in ethanol	in ethyl acetate	in isopropanol	in methanol	in n-butanol	in n-propanol
288.15 K	0.0609	0.182	0.0602	0.0073	0.0571	0.0053	0.012	0.012	0.032
293.15 K	0.0621	0.192	0.0652	0.0084	0.0681	0.0061	0.0129	0.0127	0.0355
298.15 K	0.0676	0.206	0.0756	0.0096	0.0769	0.0066	0.0162	0.0133	0.0437
303.15 K	0.0731	0.221	0.0931	0.0117	0.0951	0.0076	0.0208	0.0157	0.0563
308.15 K	0.0866	0.236	0.109	0.013	0.113	0.0089	0.0253	0.0184	0.0654
313.15 K	0.103	0.251	0.127	0.0152	0.136	0.0134	0.0342	0.0236	0.0789
318.15 K	0.116	0.268	0.152	0.017	0.15	0.0192	0.0428	0.028	0.0896
323.15 K	0.127	0.283	0.182	0.0186	0.176	0.0243	0.0547	0.0348	0.103
328.15 K	0.144	0.308	0.219	0.0202	0.199	0.0294	0.0685	0.0431	0.121
